Measured values from PMC12040169 (PLOS Biology, 2025).

Test: in vitro
Settings: human, hela cells, % viability

Row | Compound | viability at 28.5 h, 10 µM (bulk resorufin, single well) | viability at 28.5 h, 10 µM
1 | Cc1ccc(Cn2nc(C(=O)Nc3nc4ccccc4s3)c3ccccc32)cc1 [CBK047837] | 92.4% | –
2 | CCCc1ccc(S(=O)(=O)N2CCN(Cc3ccc4c(c3)OCO4)CC2)cc1 [CBK074735] | – | 107%
3 | NS(=O)(=O)c1ccc(NC(=S)N2CCN(CCO)CC2)cc1 [CBK265891] | – | 87.5%
4 | COc1nccnc1OC1CCN(CCc2ccc3ccccc3c2)CC1 [CBK084264] | – | 107%
5 | O=C(O)COc1ccc2c(=O)c(Oc3ccc(Cl)cc3)c(C(F)(F)F)oc2c1 [CBK296087] | – | 119%
6 | CCC(C)(C)c1ccc(S(=O)(=O)N2CCN(Cc3cccc4cccnc34)CC2)cc1 [CBK062830] | – | 98.1%
7 | CS(=O)(=O)N(CCc1ccccc1)CC(=O)O [CBK281244] | – | 109%
8 | NCCCOc1cc(N2CCCC2)ncn1 [CBK115285] | – | 106%
9 | CCc1c(C)nc(N)nc1N1N=C1SC(C(C)=O)C(C)=O [CBK268558] | – | 99.4%
10 | Fc1ccc(-c2ccc3c(c2)COC2(CCNCC2)O3)cc1Cl [CBK060960] | 89.8% | –
11 | C[C@H]1[C@@H]2[C@@H](O)C([C@H](C)C(=O)N3CCCC3)CC[C@@]2(C)CC[C@@H]1NC(=O)c1ccccc1 (stereo partly drawn) [CBK289441] | – | 106%
12 | CCN(CC)CCSc1nc2sc3c(c2c(=O)n1-c1ccccc1)CC(C)(C)OC3 [CBK263728] | – | 96.6%
13 | Cc1oc(C2CC2)cc1C(=O)N1CCC(c2ccncc2)CC1 [CBK283514] | – | 95.2%
14 | O=S(=O)(Nc1cc(NC2CCNC2)c2occc2c1)c1ccccc1 (stereo not drawn) [CBK066943C] | – | 104%
15 | O=C(CC12CC3CC(CC(C3)C1)C2)Nc1nc[nH]n1 [CBK288208] | – | 117%
16 | CC(=O)Nc1nc(C)c(S(=O)(=O)Nc2nc(C(C)C)ns2)s1 [CBK051227] | – | 90.9%
17 | CCCCc1c(C)nc2c(OC)cccc2c1SCCC(=O)O [CBK126917] | – | 99.5%
18 | C[C@@H]1CN(C(=O)OCc2ncc(F)cc2F)C[C@H](C)O1 [CBK200286] | – | 103%
19 | O=S(=O)(Cc1ccccc1)NCc1ccccn1 [CBK262241] | – | 96.2%
20 | CCN(CC)C(=O)C1CCCN(C(=O)Nc2ccc3c(c2)OCCO3)C1 (stereo not drawn) [CBK156135] | – | 92.3%
21 | COc1cc2c(cc1CNS(=O)(=O)c1ccc3[nH]c(=O)[nH]c(=O)c3c1)CCC2 [CBK286396] | – | 98.7%

Row | Compound | viability at 28.5 h, 10 µM (bulk resorufin, single well) | viability at 28.5 h, 10 µM
22 | CN1C(C)(C)CC(NC(=O)c2[nH]cnc2C(=O)O)CC1(C)C [CBK287102] | – | 87.5%
23 | O=C(Nc1cccc2ncccc12)c1ccnc(N2CCOCC2)c1 [CBK287882] | – | 102%
24 | CC(C)[C@@H](CO)n1c(=O)[nH]c2ncc(-c3ccco3)nc21 [CBK065018] | – | 106%
25 | Cn1c(N2CC[C@H](O)C2)nc2cc(C(=O)NCCc3cscn3)ccc21 [CBK306824] | – | 88.5%
26 | COc1ccc(Cl)cc1NC(=O)C(=O)NCc1ccccn1 [CBK263837] | – | 90.2%
27 | O=C(NNC(=S)NCC1CCCO1)c1cccnc1 (stereo not drawn) [CBK266842] | – | 97.5%
28 | CCn1c(SCC(=O)Nc2nc(C)c(C(=O)OC)s2)nc2c1c(=O)n(C)c(=O)n2C [CBK127470] | – | 101%
29 | NC(=O)NC(CC(=O)N1CCN(c2nccs2)CC1)c1cccc(Br)c1 (stereo not drawn) [CBK304548] | – | 90.6%
30 | c1ccc(C(Nc2cnccn2)C2CC2)cc1 (stereo not drawn) [CBK304145] | – | 106%
31 | CN(c1ncccc1C#N)C1CCN(CCC(N)=O)CC1 [CBK016793] | – | 87.2%
32 | Cc1ccc2nc(-c3ccc(/N=C/c4ccc(/C=N/c5ccc(-c6nc7ccc(C)cc7s6)cc5)cc4)cc3)sc2c1 [CBK261661] | – | 87.1%
33 | Cc1nnc(Nc2ccc(F)cc2)c2ccccc12 [CBK287873] | – | 93.9%
34 | COc1ccc(Cl)cc1S(=O)(=O)N1CCCC(C(=O)NCc2ccccn2)C1 (stereo not drawn) [CBK269761] | – | 96.7%
35 | CCN(CC)C(=O)C1CCCN(C(=O)Nc2ccc(Cl)cc2)C1 (stereo not drawn) [CBK156136] | – | 90.1%
36 | CCCCCOc1nccnc1N1CCNCC1 [CBK001901G] | – | 103%
37 | CCOc1cc(/C=C2/SC(=S)N(c3cccc(Cl)c3)C2=O)ccc1OCC(=O)O [CBK264966] | – | 94.2%
38 | CCC(c1ccc(F)cc1F)N1CCN(Cc2nc(C)no2)CC1 (stereo not drawn) [CBK304032] | – | 103%
39 | CCOC(=O)Nc1ccsc1C(=O)OC [CBK027880] | – | 88.6%
40 | COCc1nc(C)c(C(=O)NC2CCCN(c3ccn(C)n3)C2=O)s1 (stereo not drawn) [CBK306497] | – | 92.2%
41 | Cn1c(CCNC(=O)NC2CCCCC2)nc2cc([N+](=O)[O-])ccc21 [CBK268453] | – | 95.7%
42 | Cc1nc(C)n(CC2CCCN(Cc3ccc(C#N)cc3)C2)n1 (stereo not drawn) [CBK305082] | – | 83.1%

Row | Compound | viability at 28.5 h, 10 µM (bulk resorufin, single well) | viability at 28.5 h, 10 µM
43 | CCOC(=O)c1csc(C2CCCN2C(=O)c2ccoc2C)n1 (stereo not drawn) [CBK304080] | – | 109%
44 | COc1ccc(COc2nc3c(c(=O)n(C)c(=O)n3C)n2Cc2ccc(Cl)c(Cl)c2)cc1 [CBK268779] | – | 91.3%
45 | Cc1nnsc1C(=O)N[C@H]1CCN2C(=O)N(CCCl)C(=O)[C@@H]2C1 [CBK289550] | 95.6% | –
46 | Cc1cc(C(F)F)n2nc(C(=O)NCc3ccccc3F)nc2n1 [CBK266228] | – | 97.2%
47 | C/C(=N\NC(=O)c1nc(-c2ccccc2)cc(-c2ccccc2)n1)c1ccc(F)cc1 [CBK262826] | – | 110%
48 | COCCCNCCSc1ccc(Cl)cc1 [CBK265093] | – | 95%
49 | O=c1c2c([nH]c3nc(NCc4ccc(OCc5ccccc5)cc4)nn13)CCC2 [CBK268044] | – | 96.9%
50 | CC(C)(C)c1cc(NC(=O)c2csc3c(C(F)(F)F)cc(N4CCN(Cc5ccccc5)CC4)nc23)no1 [CBK028962] | – | 108%
51 | O=C(COc1ccccc1)N1CCN(Cc2ccncc2)CC1 [CBK072595] | – | 94.6%
52 | CC(C)NC(=O)N1CCN2C(=O)N(c3ccccc3)C(=O)[C@@H]2C1 [CBK289579] | – | 99.4%
53 | N#Cc1nc(-c2ccccc2)oc1NCCN1CCCCC1 [CBK264573] | – | 93.5%
54 | COCCN1CCC2(C/C=C/C[C@H]3COCC[C@H]3NC(=O)CNC2=O)CC1 [CBK292145] | – | 116%
55 | CCN(Cc1cn2ccc(C)cc2n1)CC1CCOCC1 [CBK306680] | – | 89.7%
56 | COc1cccc([C@H]2CN(C(=O)c3ccccc3)[C@@H]3CCN(Cc4cccs4)C[C@H]23)c1 [CBK285609] | – | 102%
57 | COc1ccc(C2CC(c3ccc(NS(C)(=O)=O)cc3)=NN2C(=O)CCCC(=O)O)cc1 (stereo not drawn) [CBK297780] | – | 116%
58 | COc1ccc(S(=O)(=O)NCCN2CCOCC2)cc1Br [CBK269838] | – | 91.4%
59 | CN(c1ncc(-c2cc3ccccc3o2)cc1C(=O)Nc1ccc2c(c1)OCO2)S(C)(=O)=O [CBK106464] | – | 101%
60 | CCN(CC)C(=O)C1CCCN(C(=O)NCCc2ccc(OC)c(OC)c2)C1 (stereo not drawn) [CBK156134] | – | 97.7%
61 | CCNC(=O)N1CC2(CCN(CCC(N)=O)CC2)c2ccccc21 [CBK144598T] | – | 99.6%
62 | COc1cccc([C@H]2CN(C(=O)c3ccccc3)[C@@H]3CCN(Cc4cccc(F)c4)C[C@H]23)c1 [CBK285626] | – | 92.6%
63 | COc1cc2c(cc1OC)C(C)N(C(=O)CCC(=O)O)CC2 (stereo not drawn) [CBK269873] | – | 92.5%
